The values below come from patent US5336687A, “Inhibition of bone loss by 4-aryloxy-5-hydroxy-2(5H)-furanones” (American Home Products Corporation, priority 1993, dated 1994).

One data set relates to Rat Limb Bone. Kind of data set: 45Ca Release from Rat Limb Bone (inhibition of bone resorption). The data set is classed as cell-based, rat (Sprague-Dawley CD). Particulars: for minimal effective concentration: concentration required to inhibit bone resorption, from regression analysis, read-out: MIC, Inhibition of Bone Resorption (45Ca release). Here is the method:
Timed pregnant Sprague-Dawley CD rats (Charles River) are administered 100 uCi^45 CaCl2 (NEN calcium-45 NEZ-013) in 100 μl of 0.9% saline, subcutaneously, on day 18 of gestation. The rats are sacrificed the following day by asphyxiation. […] The modified BGJb media is obtained without salts glucose or bicarbonate and is supplemented before use with 0.1 mM MgCl2, 1.25 mM CaCl2, 5.3 mM KCl, 0.7 mM MgSO4, 130 mM NaCl, 1.0 mM NaH2 PO4, 1 g/1 glucose, 50 mg/1 Na acetate and 100 U/ml penicillin G. The medium is sterilized by passage through a […] filter (Nalge). Under a dissecting microscope, the bones are gently cleaned of adherent tissue and the cartilagenous ends removed. Step (2): Incubation and Drug Treatment The midshafts are placed, individually, on 3×3 mm squares of filter paper (Gelman […] filters; […] pore size) which rest on stainless steel screens in wells of 24-well culture plates containing 0.5 ml of preincubation medium. The preincubation medium is brought to 37 deg. C. prior to transfer of bones. The preincubation medium consists of the modified BGJb medium (with salts and glucose as above), pH 7.3, containing 29 mM NaHCO3. After incubation for 18-24 hours at 37° C. in 5% CO2, the bones are transferred on their screen/filter paper supports to new plates containing, in a total volume of 0.5 ml/well at 37° C., the test compound diluted in preincubation medium supplemented with 15% heat inactivated horse serum (Gibco No. 230-6050), pH 7.3, with or without a bone resorption stimulating agent (parathyroid hormone [PTH]). For compounds that require nonaqueous solvents, dilutions are made from the appropriate stock solution with medium. In these instances, basal and bone resorption stimulated controls exposed to an equivalent concentration of the vehicle are included. An additional group of bones that have been subjected to boiling for 1 hour are used to establish background, non cell mediated, exchange of ^45 Ca. The right ulna and radius from each fetus are used. Both bones are subjected to the same treatment and each treatment group consists of bones from 4 or more fetuses. Treatments are randomly assigned using a preclinical statistics program (PS-ALLOC). After a 48 hour incubation at 37° C. in 5% CO2, the bones are removed from the medium and extracted in 0.5 ml of 0.1N HCl for 1 or more days. Duplicate 150 μl aliquots of the incubation medium and the bone extract are analyzed for ^45 Ca radioactivity in 5 ml of liquid scintillation cocktail. The percentage of bone ^45 Ca released into the medium is determined as follows: [formula] Results are normally expressed as the ratio of the percent ^45 Ca release of the experimental group verses the appropriate vehicle control. […] A regression analysis is calculated for dose response and the concentration of test compound required to inhibit bone resorption (^45 Ca release) is reported (Table II).

For data set [1] the following is noted: cited from earlier work.
The next data set deals with Rat Femur. Kind of data set: Immobilization Dependent Bone Loss in the Rat Femur (ovariectomized rats, unilateral sciatic neurotomy). Type of data set: in vivo. Particulars: 20 mg/kg, i.p., 5×/week for 4 weeks. How it is done:
This assay was performed according to the procedure described by Kharode Y.P., Kowal D., O'Rourke S., and Hayward M., "Effect of Time and Pharmacologic Intervention on Bone Mineralization," J. Bone Min. Res. 2, Supp.1. (1987).
Bone mass was determined in the contralateral femora from ovariectomized rats which had been subjected to unilateral sciatic nerve severance. After sciatic neurotomy, the rats were treated with test compound for 2 to 4 weeks. The rats were euthanized, the femora were excised, debrided of soft tissue, and then dehydrated. After drying, the mass of each pair of femora was determined by weighing. The % change in bone mass is calculated using the formula: [formula]

[2] abbreviates: Rattus norvegicus, 48 hour incubation at 37° C.

Values after ≈ are worked out from the molar mass of the structure shown.

Consider `O=C1C=C(Oc2ccc(C3CCCC3)cc2)C(O)O1` (stereo not drawn) [Example 4, 4-(4-Cyclopentylphenoxy)-5-hydroxy-2(5H)-furanone], for which, in the data set on Rat Limb Bone (setting [2]), the minimal effective concentration was 1 µg/mL.
As to Estrogen, in data set [1] (in vivo), the side effects entry was “increased risk of certain types of cancers”.
For the molecule `O=C1C=C(Oc2ccc(-c3ccccc3)cc2)C(O)O1` (stereo not drawn) [Example 1, 4-([1,1'-Biphenyl]-4-yloxy)-5-hydroxy-2(5H)-furanone], the minimal effective concentration in the data set on Rat Limb Bone (setting [2]) was determined as 10 µg/mL. Moreover, the “% Change in Bone Mass” value with Rat Femur is 4.8 ± 0.6%.
As for `CCCCCCCCc1ccc(OC2=CC(=O)OC2O)cc1` (stereo not drawn) [Example 3, 4-(4-Octylphenoxy)-5-hydroxy-2(5H)-furanone], the minimal effective concentration with Rat Limb Bone (setting [2]) came out at 10 µg/mL.
As to `[F-].[Na+]` [sodium fluoride], in data set [1] (in vivo), the bone growth quality entry is reported as “irregular”, the fracture incidence result was “does not appear to be significantly lowered” and the “mitogenic activity for osteoblasts” value is reported as “mitogenic for osteoblasts”. In data set [1] (may result in increase up to 8-10% a year), the bone density increase was 8-10 % a year.
In the case of `O=C1C=C(Oc2ccc(C(F)(F)F)cc2)C(O)O1` (stereo not drawn) [Example 5, 4-(4-Trifluoromethylphenoxy)-5-hydroxy-2(5H)-furanone], the IC50 with Rat Limb Bone (Rattus norvegicus, 48 hour incubation at 37° C., printed in the MIC (μg/mL) column) turned out to be 3.5 µg/mL (≈ 13.5 µM).
For `O=C1C=C(Oc2ccc(Sc3ccccc3)cc2)C(O)O1` (stereo not drawn) [Example 7, 4-[4-thiophenyl-1-phenoxy]-5-hydroxy-2(5H)-furanone], the minimal effective concentration with Rat Limb Bone (setting [2]) is 10 µg/mL.

B1: PTH: bone resorption stimulating agent (parathyroid hormone [PTH]) (protein, UniProt P01270 32-115, looked up)
Parathyroid hormone: SVSEIQLMHNLGKHLNSMERVEWLRKKLQDVHNFVALGAPLAPRDAGSQRPRKKEDNVLVESHEKSLGEADKADVNVLTKAKSQ
B1: the “ratio of the percent 45Ca release vs vehicle control (basal = 1.00)” value in the data set on Rat Limb Bone (PTH 10^-7 M, bone resorption agent, 'commonly') was 1.3-2.0.

A word on the IC50: it is the concentration needed to halve the response being measured. Lower therefore signals greater potency.
